Measurements taken from patent US20240166649A1, “DIHYDROPYRIMIDINE COMPOUND, PREPARATION METHOD THEREFOR AND APPLICATION THEREOF” (Shanghai Visonpharma Co., Ltd., priority 2021, published 2024).
pEC50: −log10 of the molar value. Like-named read-outs stand apart in the source and are kept apart here.

Columns and labels:
[1] = system: HBV (hepatitis B virus) in HepG2.2.15 cells; experiment: Cell-based anti-viral activity assay (HBV DNA in supernatant by quantitative PCR); conditions: 120 h, anti-HBV activity, HepG2.2.15 cells, 5 days, read-out: EC50 (HepG2.2.15)
Outline: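 HepG2.2.15 cells (stably carrying HBV genome) treated with 3.16-fold compound dilutions, final 1% DMSO, for 5 days at 37 °C. Supernatant HBV DNA quantified by qPCR against a standard curve; % inhibition normalised to DMSO and high-concentration reference compound wells.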

[2] = Cytotoxicity assay (CellTiter Glo); assay type: cell-based; conditions: human; HepG2.2.15 cells, five days post treatment
Protocol: The Invention Determined Cytotoxicity of the Compounds Against HepG2.2.15 Cells (Table 2)
HepG2.2.15 cells were seeded into 96-well plates (8000 cells per well) and cell viability was measured by the addition of 60 μL of CellTiter Glo reagent (Promega) five days post treatment with the compounds. Cell plates with CellTiter Glo added were shaken on a plate shaker for 20 min and then the chemiluminescence signal was stabilized at room temperature for 10 min. Chemiluminescence values were read using a microplate reader (Bio-TeK SYNERGY NEO2).
The concentration corresponding to 50% cytotoxicity (CC50) was fitted by graphpad prism software. The cytotoxicity was calculated by the formula: % Cytotoxicity=100−(chemiluminescence value of sample Well −average chemiluminescence value of blank medium column)/(average chemiluminescence value of DMSO column −average chemiluminescence value of blank medium column)*100

[3] = Pharmacokinetics (PK) evaluation in mice; assay type: in vivo; conditions: ICR mice, po 10 mg/kg; for Kp at 0.5 h / Kp at 1 h / Kp at 3 h / Kp at 5 h / concentration at 0.5 h / concentration at 1 h / concentration at 3 h / concentration at 5 h / AUC(0-t) / Cmax: mouse; for Kp at 0.5 h / Kp at 1 h / Kp at 3 h / Kp at 5 h: liver/plasma, read-out: Liver/Plasma ratio
Protocol: Pharmacokinetics (PK) Evaluation in Mice Test compounds were administered to ICR mice by gavage (po). The po dose was 10 mg/kg, and the vehicle formulation was 10% DMSO+40% PEG400+50% Saline (0.9% saline). Animals were fasted overnight (10-14 h) before administration and fed 4 h after administration. Blood was collected into heparin sodium anticoagulated tubes at multiple time points (0.5, 1, 3, 5 hours) after administration. Mice were euthanized with CO2 and livers were collected at multiple time points (0.5, 1, 3,5 h). The drug concentrations in plasma and liver were analyzed by LC-MS/MS method. Phenix WinNonlin was used to calculate the pharmacokinetic parameters.

[4] = liver, read-out: Liver drug conc.
[5] = plasma, read-out: Plasm drug conc.

CCOC(=O)C1=C(CN2CCN3C(=O)N(C45CC(CC(=O)O)(C4)C5)C[C@@H]3C2)NC(c2nccs2)=N[C@H]1c1cccc(F)c1C [Compound 22, 2-(3-((S)-7-(((S)-5-(Ethoxycarbonyl)-6-(3-Fluoro-2-Methylphenyl)-2-(Thiazol-2-Yl)-3,6-Dihydropyrimidin-4-Yl)Methyl)-3-Oxohexahydroimidazo[1,5-a]Pyrazin-2(3H)-Yl)Bicyclo[1.1.1]Pentan-1-Yl)Acetic Acid]
pEC50 [1]: 8.15 | CC50 at 5 days [2]: > 50000 nM | Liver AUC(0→t) [3]: 231116 ng·h/g | Liver Cmax [3]: 102141 ng/g | Kp at 0.5 h [3]: 120 | Kp at 1 h [3]: 115 | Kp at 3 h [3]: 137 | Kp at 5 h [3]: 297 | concentration at 0.5 h [3, 4]: 102000 ng/g | concentration at 1 h [3, 4]: 94800 ng/g | concentration at 3 h [3, 4]: 24700 ng/g | concentration at 5 h [3, 4]: 12200 ng/g | AUC(0-t) ([3]; plasma): 1860 ng·h/mL | Cmax ([3]; plasma): 849 ng/mL | concentration at 0.5 h [3, 5]: 849 ng/mL | concentration at 1 h [3, 5]: 826 ng/mL | concentration at 3 h [3, 5]: 180 ng/mL | concentration at 5 h [3, 5]: 41 ng/mL

CCOC(=O)C1=C(CN2CCN3C(=O)N(C45CC(NS(C)(=O)=O)(C4)C5)C[C@@H]3[C@H]2C(=O)O)NC(c2nccs2)=N[C@H]1c1cccc(F)c1C [Compound 46, (8S,8aR)-7-(((S)-5-(Ethoxycarbonyl)-6-(3-Fluoro-2-Methylphenyl)-2-(Thiazol-2-Yl)-3,6-Dihydropyrimidin-4-Yl)Methyl)-2-(3-(Methylsulfonamido)Bicyclo[1.1.1]Pentan-1-Yl)-3-Oxooctahydroimidazo [1,5-a]Pyrazine-8-Carboxylic Acid]
pEC50 [1]: 7.21 | CC50 at 5 days [2]: > 50000 nM

CCOC(=O)C1=C(CN2CCN3C(=O)N(C45CC(CF)(C4)C5)C[C@@H]3C2)NC(c2nccs2)=N[C@H]1c1cccc(F)c1C [Compound 18, Ethyl (S)-4-(3-Fluoro-2-Methylphenyl)-6-(((S)-2-(3-(Fluoromethyl)Bicyclo[1.1.1]Pentan-1-Yl)-3-Oxohexahydroimidazo[1,5-a]Pyrazin-7(1H)-Yl)Methyl)-2-(Thiazol-2-Yl)-1,4-Dihydropyrimidine-5-Carboxylate]
pEC50 [1]: 8.52 | CC50 at 5 days [2]: > 50000 nM

CCOC(=O)C1=C(CN2CCN3C(=O)N(C45CCC(C(=O)O)(CC4)CC5)C[C@@H]3C2)NC(c2nccs2)=N[C@H]1c1ccc(F)cc1Cl [Compound 55, 4-((S)-7-(((R)-6-(2-Chloro-4-Fluorophenyl)-5-(Ethoxycarbonyl)-2-(Thiazol-2-Yl)-3,6-Dihydropyrimidin-4-Yl)Methyl)-3-Oxohexahydroimidazo[1,5-a]Pyrazin-2(3H)-Yl)Bicyclo[2.2.2]Octane-1-Carboxylic Acid]
pEC50 [1]: 8.70 | CC50 at 5 days [2]: > 50000 nM

CCOC(=O)C1=C(CN2CCN3C(=O)N(C45CC(C(=O)NS(C)(=O)=O)(C4)C5)C[C@@H]3C2)NC(c2nccs2)=N[C@H]1c1cccc(F)c1C [Compound 28, Ethyl (S)-4-(3-Fluoro-2-Methylphenyl)-6-(((S)-2-(3-((Methylsulfonyl)Carbamoyl)Bicyclo[1.1.1]Pentan-1-Yl)-3-Oxohexahydroimidazo[1,5-a]Pyrazin-7(1H)-Yl)Methyl)-2-(Thiazol-2-Yl)-1,4-Dihydropyrimidine-5-Carboxylate]
pEC50 [1]: 7.68 | CC50 at 5 days [2]: > 50000 nM

CCOC(=O)C1=C(CN2CCN3C(=O)N(C45CC(CO)(C4)C5)C[C@@H]3[C@H]2C(=O)O)NC(c2nccs2)=N[C@H]1c1cccc(F)c1C [Compound 33, (8S,8aR)-7-(((S)-5-(Ethoxycarbonyl)-6-(3-Fluoro-2-Methylphenyl)-2-(Thiazol-2-Yl)-3,6-Dihydropyrimidin-4-Yl)Methyl)-2-(3-(Hydroxymethyl)Bicyclo[1.1.1]Pentan-1-Yl)-3-Oxooctahydroimidazo[1,5-a]Pyrazine-8-Carboxylic Acid]
pEC50 [1]: 6.69 | CC50 at 5 days [2]: > 50000 nM

CCOC(=O)C1=C(CN2CCN3C(=O)N(C45CCC(CC(=O)O)(C4)C5)C[C@@H]3C2)NC(c2nccs2)=N[C@H]1c1cccc(F)c1C [Compound 58, 2-(4-((S)-7-(((S)-5-(Ethoxycarbonyl)-6-(3-Fluoro-2-Methylphenyl)-2-(Thiazol-2-Yl)-3,6-Dihydropyrimidin-4-Yl)Methyl)-3-Oxohexahydroimidazo[1,5-a]Pyrazin-2(3H)-Yl)Bicyclo[2.1.1]Hexan-1-Yl)Acetic Acid]
pEC50 [1]: 8.22 | CC50 at 5 days [2]: > 50000 nM | Liver AUC(0→t) [3]: 175730 ng·h/g | Liver Cmax [3]: 62519 ng/g | Kp at 0.5 h [3]: 31 | Kp at 1 h [3]: 40 | Kp at 3 h [3]: 57 | Kp at 5 h [3]: 44 | concentration at 0.5 h [3, 4]: 62500 ng/g | concentration at 1 h [3, 4]: 61300 ng/g | concentration at 3 h [3, 4]: 26800 ng/g | concentration at 5 h [3, 4]: 14200 ng/g | AUC(0-t) ([3]; plasma): 4210 ng·h/mL | Cmax ([3]; plasma): 2030 ng/mL | concentration at 0.5 h [3, 5]: 2030 ng/mL | concentration at 1 h [3, 5]: 1540 ng/mL | concentration at 3 h [3, 5]: 470 ng/mL | concentration at 5 h [3, 5]: 324 ng/mL

COC(=O)C1=C(CN2CCN3C(=O)N(C45CC(CC(=O)O)(C4)C5)C[C@@H]3C2)NC(c2nccs2)=N[C@H]1c1ccc(F)cc1Cl [Compound 38, 2-(3-((S)-7-(((R)-6-(2-Chloro-4-Fluorophenyl)-5-(Methoxycarbonyl)-2-(Thiazol-2-Yl)-3,6-Dihydropyrimidin-4-Yl)Methyl)-3-Oxohexahydroimidazo[1,5-a]Pyrazin-2 (3H)-Yl)Bicyclo[1.1.1]Pentane-1-Yl)Acetic Acid]
pEC50 [1]: 7.37 | CC50 at 5 days [2]: > 50000 nM
